Laboratory results taken from ChEMBL document CHEMBL3639344, “Fused heterocyclic compounds as orexin receptor modulators” (2014).

Columns and labels:
[1] = target: T1, Orexin/Hypocretin receptor type 1 (Homo sapiens, UniProt O43613); test: (§1) Radioligand Binding: Chinese ovary cells (CHO) stably expressing human orexin 1 receptor (Genebank accession number […]) were grown to confluency in DMEM/F12 (Gibco, Cat #11039), 10% FBS, 1× Pen/Strep, 600 μg/mL G418 media on 150 cm2 tissue culture plates, washed with 5 mM EDTA in PBS (HyClone Dulbecco's Phoshpate Buffered Saline 1× with Calcium and Magnesium, Cat #SH30264.01, hereafter referred to simply as PBS) and scraped into 50 ml tubes. After centrifugation (2K xG, 10 min at 4° C.), the supernatant was aspirated and the pellets frozen and stored at −80° C. Cells were resuspended in PBS in the presence of 1 tablet of protease inhibitor cocktail (Roche, Cat. #11836145001) per 50 mL.; assay type: cell-based
T1 sequence (O43613 whole entry): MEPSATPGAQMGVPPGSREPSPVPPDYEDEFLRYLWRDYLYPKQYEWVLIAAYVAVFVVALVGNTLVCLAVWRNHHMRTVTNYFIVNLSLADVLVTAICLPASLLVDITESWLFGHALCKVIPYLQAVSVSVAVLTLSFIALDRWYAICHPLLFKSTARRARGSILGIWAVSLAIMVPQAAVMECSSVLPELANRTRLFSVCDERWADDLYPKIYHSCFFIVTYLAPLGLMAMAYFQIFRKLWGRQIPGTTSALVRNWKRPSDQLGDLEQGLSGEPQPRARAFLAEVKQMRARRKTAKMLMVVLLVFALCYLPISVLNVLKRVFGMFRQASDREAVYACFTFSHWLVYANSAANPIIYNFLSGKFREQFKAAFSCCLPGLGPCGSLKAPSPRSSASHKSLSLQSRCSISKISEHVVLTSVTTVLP

Orexin receptor type 2 = target: T2, Orexin receptor type 2 (Homo sapiens, UniProt O43614); test: as §1, with “HEK293” for “Chinese ovary cells (CHO)”, “orexin-2” for “orexin 1”, “#11039), in DMEM,” for “#11039),”, “Pen/Strep, 1× NaPyruvate, 1×HEPES,” for “Pen/Strep,”, “ug/ml” for “μg/mL”, “Phosphate” for “Phoshpate”
T2 sequence (O43614 whole entry): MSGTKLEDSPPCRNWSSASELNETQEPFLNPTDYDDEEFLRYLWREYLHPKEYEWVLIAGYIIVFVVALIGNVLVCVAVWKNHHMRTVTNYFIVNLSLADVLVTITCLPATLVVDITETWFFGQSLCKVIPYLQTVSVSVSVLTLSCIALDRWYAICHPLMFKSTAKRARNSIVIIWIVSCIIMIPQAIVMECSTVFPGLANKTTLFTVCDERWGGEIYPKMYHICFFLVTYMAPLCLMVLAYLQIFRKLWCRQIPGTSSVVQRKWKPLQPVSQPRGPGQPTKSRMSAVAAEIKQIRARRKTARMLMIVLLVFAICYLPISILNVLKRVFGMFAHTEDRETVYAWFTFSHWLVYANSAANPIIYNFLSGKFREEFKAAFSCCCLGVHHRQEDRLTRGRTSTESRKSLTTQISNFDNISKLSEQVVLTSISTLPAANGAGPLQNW

SMILES: Cc1cc(C)nc(N2C[C@@H]3CCN(C(=O)c4ccccc4-c4nc(C)no4)C[C@@H]32)n1
- Ki [1]: 1590 nM
- Ki (Orexin receptor type 2): 59 nM
